For data set [1] the following is noted: detectable pH range of the fluorescent pH indicator; taken from probes.invitrogen.com handbook table; cited from earlier work.
Data set [2] in a line: fluorescence intensity of ageladine A as a function of the pH of the solution. The format is physicochemical. From the text: The optical measurement method according to an embodiment of the present invention includes an alternative fluorescent pH indicator based on ageladine A. Ageladine A is a known natural marine substance in the form of a pyrrole-imidazole alkaloid which has heretofore been used exclusively for medical purposes. Ageladine A can be obtained both from marine sponges and produced synthetically. It is therefore readily possible, by means of the total syntheses described, to prepare large quantities of ageladine A without having to have recourse to marine sponges. […] When using ageladine A as a fluorescent pH indicator, pH changes of the medium to be investigated between pH4 and pH9 can be reliably optically indicated by means of a changeable fluorescence intensity in such a manner that the emitted fluorescence intensity increases as the pH falls. […] Advantageously, samples that have been taken (in vitro), but also living cells, tissue and entire organisms (in vivo) can be incubated with ageladine A as fluorescent pH indicator and stained in this manner by means of the fluorescence in the green range. This enables measurements of the pH in vivo and in vitro in a wide range and thus the detection of acidic tissue in organisms due to its fluorescence properties. The fluorescence in the green range increases markedly as the pH falls. […] The fluorescence intensity was measured at 510 nm. […]

The subject of another data set is PC-12 cells. Description: staining of cells with ageladine A and measurement of intracellular pH. The format is cell-based, rat. Particulars: PC-12 cells incubated with ageladine A, excitation 380 nm. Here is the method: FIGS. 2A, 2B show images, at 400-times magnification, of cells (PC-12 cells, rat, deposited at DSMZ) incubated with ageladine A and stained by means of the same. Excitation took place using UV light with a wavelength of 380 nm.
The fluorescence ratio value (340 nm/380 nm) is plotted over time (time in s). The various pHs of the buffer solution are marked as parameters on the graph. It can clearly be recognized that the fluorescence emission follows the extracellular increase of the pH of the solution in a wide range (pH6.5 to pH3). The change of the intracellular pH is only a few tenths around pH7, as a result of which a very high measurement resolution of the pH indicator results.

The subject of data set [3] is shrimp (Palaemonetes argentinus). Description: in-vivo staining of a living organism with ageladine A. An excerpt: The green curve (lowest straight curve) indicates fluorescence intensity values within the buffer solution outside of the shrimp, the red and blue curves (middle and upper curved curves) indicate fluorescence intensity values within the shrimp and thus, in a simple manner, easily recognizable and detectable acidic constituents of the shrimp.

Molecules are shown by their SMILES. “Also recorded” adds a separate entry of the source.

Turning to `O=S(=O)([O-])c1cc(O)c2ccc3c(S(=O)(=O)[O-])cc(S(=O)(=O)[O-])c4ccc1c2c34.[Na+].[Na+].[Na+]` [HPTS (pyranine), pyranine], the “PH RANGE” value in data set [1] is on record as 7.0-8.0.

`O=c1c2cccc3c(NCCN4CCOCC4)ccc(c32)c2nc3ccccc3n12` [LysoSensor Green DND-189]: the “PH RANGE” value in data set [1] was 4.5-6.0.

In the case of `Nc1nc2ccnc(-c3cc(Br)c(Br)[nH]3)c2[nH]1` [ageladine A], the “stability of the stainings” value in data set [2] (cells, tissue, organisms incubated with ageladine A) is given as “stable over hours to days; also recorded: last for at least a plurality of days”. In data set [2] (despite UV irradiation), the “stability of fluorescence under UV irradiation” value is listed as “stable for hours”. The staining of cells result in the data set with PC-12 cells is given as “stained”. Besides, the penetration into tissue entry in data set [3] (intact, living organisms, on account of lipophilic structure (bromination)) is “penetrates very quickly and far into the tissue”. The “in-vivo staining of tissue” value in data set [3] (shrimp incubated with ageladine A, irradiated with UV light) is “acidic structures (mouth-digestive region) in the shrimp were stained”.

Values taken from patent publication US8198098B2, “Optical measurement method for determining the pH of a medium using ageladine A as a fluorescent pH indicator” (Stiftung Alfred-Wegener-Institut fuer Polar-und …, priority 2007, dated 2012).
